Results taken from the supplement of paper PMC10307832.

Columns and labels:
Assay in all cases: relative viability (nuclei count vs DMSO), 5 days (fraction); higher = more cells survive
MK-8033 + Vorinostat = compound: Cn1cc(-c2cnc3ccc4ccc(CS(=O)(=O)NCc5ccccn5)cc4c(=O)c3c2)cn1 [MK-8033] + O=C(CCCCCCC(=O)Nc1ccccc1)NO [Vorinostat] (partner 1 µM)
How it was run: (§1)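 Relative viability was taken as the ratio of nuclei in treated wells to nuclei in vehicle wells. Lung cancer cell lines in 1536-well plates received compounds by pin tool one day after seeding, either one drug alone or a fixed anchor-drug dose plus five library-drug doses (not always all listed) in √10 steps. Nuclei were counted on 4× images after 5 days of treatment, and values are medians of duplicate plates.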

Irinotecan + Vorinostat = compound: CCc1c2c(nc3ccc(OC(=O)N4CCC(N5CCCCC5)CC4)cc13)-c1cc3c(c(=O)n1C2)COC(=O)[C@]3(O)CC [Irinotecan] + O=C(CCCCCCC(=O)Nc1ccccc1)NO [Vorinostat] (partner 1 µM)
How it was run: as §1

RU-SKI 43 + Luminespib = compound: CC[C@@H](C)CNCC(=O)N1CCC2=C([C@@H]1COC3=CC=CC(=C3)C)C=CS2 [RU-SKI 43] + CCNC(=O)c1noc(-c2cc(C(C)C)c(O)cc2O)c1-c1ccc(CN2CCOCC2)cc1 [Luminespib] (partner 0.01 µM)
How it was run: as §1

MK-8033 + Pictilisib = compound: Cn1cc(-c2cnc3ccc4ccc(CS(=O)(=O)NCc5ccccn5)cc4c(=O)c3c2)cn1 [MK-8033] + CS(=O)(=O)N1CCN(Cc2cc3nc(-c4cccc5[nH]ncc45)nc(N4CCOCC4)c3s2)CC1 [Pictilisib] (partner 1 µM)
How it was run: as §1

| Cell Line | relative viability (MK-8033 + Vorinostat; first compound 0.02 µM) | relative viability (MK-8033 + Vorinostat; first compound 0.06325 µM) | relative viability (MK-8033 + Vorinostat; first compound 0.2 µM) | relative viability (MK-8033 + Vorinostat; first compound 0.6325 µM) | relative viability (MK-8033 + Vorinostat; first compound 2 µM) | relative viability (Irinotecan + Vorinostat; first compound 0.6325 µM) | relative viability (Irinotecan + Vorinostat; first compound 2 µM) | relative viability (Irinotecan + Vorinostat; first compound 6.325 µM) | relative viability (Irinotecan + Vorinostat; first compound 20 µM) | relative viability (RU-SKI 43 + Luminespib; first compound 0.1 µM) | relative viability (RU-SKI 43 + Luminespib; first compound 0.3162 µM) | relative viability (RU-SKI 43 + Luminespib; first compound 1 µM) | relative viability (RU-SKI 43 + Luminespib; first compound 3.162 µM) | relative viability (RU-SKI 43 + Luminespib; first compound 10 µM) | relative viability (MK-8033 + Pictilisib; first compound 0.02 µM) | relative viability (MK-8033 + Pictilisib; first compound 0.06325 µM) | relative viability (MK-8033 + Pictilisib; first compound 0.2 µM) | relative viability (MK-8033 + Pictilisib; first compound 0.6325 µM) | relative viability (MK-8033 + Pictilisib; first compound 2 µM) |
| --- | --- | --- | --- | --- | --- | --- | --- | --- | --- | --- | --- | --- | --- | --- | --- | --- | --- | --- | --- |
| 201T | 0.956 | 0.926 | 0.791 | 0.949 | 0.962 | 0.325 | 0.81 | 0.426 | 0.28 | 1.06 | 1.06 | 1.04 | 1.06 | 1.03 | 0.684 | 0.579 | 0.657 | 0.654 | 0.697 |
| A549 | – | – | – | – | – | – | – | – | – | – | – | – | – | – | 0.519 | 0.491 | 0.387 | 0.47 | 0.409 |
| A-427 | 0.886 | 0.826 | 0.819 | 0.908 | 0.881 | 0.738 | 0.785 | 0.384 | 0.33 | 0.851 | 1.2 | 1 | 0.668 | 0.789 | 0.676 | 0.7 | 0.677 | 0.734 | 0.644 |
| ABC-1 | 1.24 | 0.931 | 0.928 | 1.04 | 0.975 | – | 0.566 | 0.405 | 0.348 | 0.68 | 0.434 | 0.485 | 0.673 | 0.811 | 0.969 | 0.564 | 0.689 | 0.674 | 0.699 |
| BEN | 0.594 | 0.537 | 0.602 | 0.547 | 0.67 | 0.544 | 0.726 | 0.473 | 0.545 | 0.423 | 0.277 | 0.525 | 0.218 | 0.421 | 0.583 | 0.454 | 0.499 | 0.594 | 0.541 |
| CAL-12T | 0.797 | 0.709 | 0.81 | 0.775 | 0.673 | 0.733 | 0.592 | 0.403 | 0.259 | 0.207 | 0.364 | 0.179 | 0.19 | 0.363 | 0.515 | 0.323 | 0.339 | 0.436 | 0.388 |
| COR-L23 | 0.423 | 0.408 | 0.385 | 0.459 | 0.491 | 0.169 | 0.184 | 0.199 | 0.0826 | 0.547 | 0.573 | 0.93 | 0.869 | 0.614 | 0.8 | 0.731 | 0.697 | 0.876 | 0.823 |
| COR-L 105 | 0.88 | 0.891 | 0.708 | 0.782 | 0.547 | 0.856 | 0.643 | 0.621 | 0.334 | 0.871 | 0.837 | 0.643 | 0.772 | 0.686 | 0.413 | 0.357 | 0.366 | 0.424 | 0.403 |
| Calu-6 | – | – | – | – | – | – | – | – | – | – | – | – | – | – | 0.947 | 0.766 | 0.899 | 0.85 | 0.975 |
| ChaGo-K-1 | 0.769 | 0.74 | 0.729 | 0.685 | 0.687 | 0.443 | 0.326 | 0.268 | 0.243 | 0.661 | 0.566 | 0.723 | 0.645 | 0.516 | 0.717 | 0.652 | 0.654 | 0.713 | 0.615 |
| EBC-1 | – | – | – | – | – | – | – | – | – | – | – | – | – | – | 0.354 | 0.314 | 0.222 | 0.195 | 0.144 |
| HCC-78 | 0.401 | 0.399 | 0.539 | 0.262 | 0.455 | 0.56 | 0.322 | 0.291 | 0.288 | – | – | – | – | – | 0.237 | 0.152 | 0.253 | – | 0.245 |
| HCC-366 | 0.392 | 0.313 | 0.253 | 0.329 | 0.324 | 0.145 | 0.137 | 0.0609 | 0.069 | – | – | – | – | – | 0.151 | 0.0933 | 0.228 | 0.138 | 0.142 |
| IA-LM | 0.828 | 0.976 | 0.938 | 1.01 | 0.965 | – | 0.619 | 0.251 | 0.0877 | – | – | – | – | – | 0.356 | 0.273 | 0.293 | 0.286 | 0.289 |
| NCI-H522 | 0.796 | 0.741 | 0.829 | 0.895 | 0.942 | 0.734 | 0.727 | 0.59 | 0.65 | 1.28 | 1.14 | 1.14 | 1.05 | 1.17 | – | – | – | – | – |
| NCI-H1299 | – | – | – | – | – | – | – | – | – | – | – | – | – | – | 0.759 | 0.862 | 0.748 | 0.799 | 0.617 |
| NCI-H1563 | – | – | – | – | – | – | – | – | – | 0.51 | 0.502 | 0.51 | 0.529 | 0.495 | 0.617 | 0.63 | 0.648 | 0.659 | 0.705 |
| NCI-H1623 | – | – | – | – | – | – | – | – | – | 0.452 | 0.478 | 0.468 | 0.577 | 0.447 | – | – | – | – | – |
| NCI-H1648 | 0.591 | – | 0.3 | 0.718 | 0.629 | 0.379 | 0.423 | 0.355 | 0.279 | – | – | – | – | – | – | – | – | – | – |
| NCI-H1703 | – | – | – | – | – | – | – | – | – | – | – | – | – | – | 0.238 | 0.244 | 0.255 | 0.223 | 0.248 |
| NCI-H1792 | – | – | – | – | – | – | – | – | – | 0.462 | 0.568 | 0.447 | 0.492 | 0.456 | 0.256 | 0.188 | 0.346 | 0.269 | 0.212 |
| NCI-H2342 | 0.859 | 0.728 | 0.643 | 0.79 | 0.731 | 0.955 | 0.911 | 0.836 | 0.356 | 0.686 | 0.667 | 0.713 | 0.62 | 0.617 | – | – | – | – | – |
| SW 900 | 0.593 | 0.394 | 0.377 | 0.541 | 0.348 | – | 0.564 | 0.333 | 0.373 | 0.196 | 0.188 | 0.195 | 0.169 | 0.151 | – | – | – | – | – |
